Reference: PubChem BioAssay AID651880 (NMMLSC, 2012)
Active and inactive are the calls of the source. The rule behind the calls is not given here.

The molecules below were run against Botulinum neurotoxin type F light chain protease (Clostridium botulinum) (assay: Botulinum neurotoxin type F light chain protease inhibitors, multiplex microsphere cleavage, dose response (AID 651880)). Conditions: multiplex microsphere flow cytometry protease cleavage assay.

Compound | EC50
CNC(=O)c1ccc(N2N=C(c3ccccc3)CC2c2ccccc2)cc1 (centres undefined) | > 20 µM (inactive)
O=C(c1ccc(N2N=C(c3ccccc3)CC2c2ccccc2)cc1)N1CCOCC1 (centres undefined) | > 20 µM (inactive)
CC(C)NC(=O)c1ccc(N2N=C(c3ccccc3)CC2c2ccccc2)cc1 (centres undefined) | > 20 µM (inactive)
CSc1ccc(C2=NN(c3ccc(S(N)(=O)=O)cc3)C(c3ccccc3)C2)cc1 (centres undefined) | > 20 µM (inactive)
NS(=O)(=O)c1ccc(N2N=C(c3ccncc3)CC2c2ccccc2)cc1 (centres undefined) | > 20 µM (inactive)
CSc1ccc(C2=NN(c3ccccc3)C(c3ccccc3)C2)cc1 (centres undefined) | > 20 µM (inactive)
c1ccc(C2=NN(c3ccccc3)C(c3ccccc3)C2)cc1 (centres undefined) | > 20 µM (inactive)
CSc1ccc(C2=NN(c3ccc(S(C)(=O)=O)cc3)C(c3ccccc3)C2)cc1 (centres undefined) | > 20 µM (inactive)
COc1ccc(N2N=C(c3cccnc3)CC2c2ccccc2)cc1 (centres undefined) | > 20 µM (inactive)
c1ccc(C2CC(c3cccnc3)=NN2c2ccccc2)cc1 (centres undefined) | > 20 µM (inactive)
COc1ccc(N2N=C(c3ccc(SC)cc3)CC2c2ccccc2)cc1 (centres undefined) | > 20 µM (inactive)
CS(=O)(=O)c1ccc(N2N=C(c3ccncc3)CC2c2ccccc2)cc1 (centres undefined) | > 20 µM (inactive)
c1ccc(-c2cc(-c3ccccc3)n(-c3ccccc3)n2)cc1 | > 20 µM (inactive)
CC(C)CNC(=O)c1ccc(N2N=C(c3ccccc3)CC2c2ccccc2)cc1 (centres undefined) | > 20 µM (inactive)
c1ccc(C2CC(c3ccccn3)=NN2c2ccccc2)cc1 (centres undefined) | > 20 µM (inactive)
CS(=O)(=O)c1ccc(N2N=C(c3ccccc3)CC2c2ccccc2)cc1 (centres undefined) | > 20 µM (inactive)
NS(=O)(=O)c1ccc(N2N=C(c3cccnc3)CC2c2ccccc2)cc1 (centres undefined) | > 20 µM (inactive)
CSc1ccc(C2=NN(c3ccc([N+](=O)[O-])cc3)C(c3ccccc3)C2)cc1 (centres undefined) | 0.05 µM
COc1ccc(N2N=C(c3ccccn3)CC2c2ccccc2)cc1 (centres undefined) | > 20 µM (inactive)
COc1ccc(N2N=C(c3ccccc3)CC2c2ccccc2)cc1 (centres undefined) | > 20 µM (inactive)
CSc1ccc(C2=NN(c3ccc(C(=O)N4CCOCC4)cc3)C(c3ccccc3)C2)cc1 (centres undefined) | > 20 µM (inactive)
COc1ccc(N2N=C(c3ccncc3)CC2c2ccccc2)cc1 (centres undefined) | > 20 µM (inactive)
NS(=O)(=O)c1ccc(N2N=C(c3ccccc3)CC2c2ccccc2)cc1 (centres undefined) | > 20 µM (inactive)
O=[N+]([O-])c1ccc(N2N=C(c3ccccc3)CC2c2ccccc2)cc1 (centres undefined) | 0.2 µM
O=C(c1ccc(N2N=C(c3ccccc3)CC2c2ccccc2)cc1)N1CCCCC1 (centres undefined) | > 20 µM (inactive)
CS(=O)(=O)c1ccc(N2N=C(c3cccnc3)CC2c2ccccc2)cc1 (centres undefined) | > 20 µM (inactive)
CNC(=O)c1ccc(N2N=C(c3ccc(SC)cc3)CC2c2ccccc2)cc1 (centres undefined) | > 20 µM (inactive)
CSc1ccc(C2=NN(c3ccc(C(=O)N4CCCCC4)cc3)C(c3ccccc3)C2)cc1 (centres undefined) | > 20 µM (inactive)
c1ccc(C2CC(c3ccncc3)=NN2c2ccccc2)cc1 (centres undefined) | > 20 µM (inactive)
